Measurements taken from patent US20230109839A1, “THERAPEUTIC AGENT FOR TAUOPATHIES” (SUMITOMO PHARMA CO., LTD., priority 2020, published 2023).
Entries after “also recorded” stand apart in the source; their conditions may differ. Like-named read-outs stand apart in the source and are kept apart here.

Assays:
[1] = target: T1, human Nav1.1 (Homo sapiens, UniProt P35498); test: Amplification of Nav1.1-derived voltage-gated sodium current (Nav1.1 current), automated patch clamp (Test 1); type: cell-based; conditions: read-out: Nav1.1 current amplification rate (%)
T1 construct: host or cells: HEK293
How it was run: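 Compound-induced change in ramp-evoked sodium current peak and AUC was expressed as 100×post/pre ratio minus 100. Recordings used automated patch clamp in voltage-clamp mode on a stable human Nav1.1 HEK293 line, including only cells above 500 pA. Compounds were delivered in extracellular fluid containing 1% DMSO.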

[2] = test system: phosphorylated tau oligomer; test: Evaluation of phosphorylated tau oligomers in brain of APP-Tg mice, Western blotting (Test 4); type: in vivo, mouse; conditions: for Reducing effect of phosphorylated tau oligomer: 7-10 days, with ABT 1 mg/g-food; for reducing effect of tau oligomer: with food for 7-10 days, ABT 1 mg/g-food depending on the compound, brain, anti-oligomerized tau antibody TOMA-1
Protocol: Test 4: Evaluation of Phosphorylated Tau Oligomers Using APP-Tg Mice
This test is a test to quantify the oligomer of phosphorylated tau in the brain to evaluate the action of a compound. […] The APP-Tg mice used herein were prepared by the method described in Test 3.
The test compound administered with food to APP-Tg mice for 7-10 days. At this time, in order to increase the blood concentration of the test compound, ABT was used in combination with a mixed diet of 1 mg/g-food depending on the compound. After the administration, the brain was collected, and the protein is extracted from the collected brain using TBS (Tris Buffered Saline) or sarcosyl, and then SDS-PAGE (sodium dodecyl sulfate-polyacrylamide gel electrophoresis) of the soluble or insoluble fraction was performed. After that, Western blotting was performed using an anti-oligomerized tau antibody (Anti-Tau, oligomeric, clone TOMA-1), and the effect of the test compound was evaluated by quantifying the band amount of the phosphorylated tau oligomer.
The reducing effect of phosphorylated tau oligomer was calculated by the following formula, and from the calculated values, the results were defined as follows: 0-25%: +, 25-50%: ++, 50-75%: +++, and 75-100%: ++++. The significant difference from the vehicle-administered group was determined using the Student t-test. For the band amount, the value corrected by the β-actin band amount was used.
Reducing effect of phosphorylated tau oligomer={(band amount of oligomerized tau in vehicle-administered group−band amount of oligomerized tau in test compound-administered group)/band amount of oligomerized tau in vehicle-administered group}×100

[3] = test system: APP-Tg mouse; test: Evaluation of the cognitive function by novel object recognition test (NORT) in APP-Tg mice (Test 3); type: in vivo; parameters: key to Discrimination index: (novel − known search time)/(novel + known search time); conditions: for improvement of cognitive function (NORT), summary of the above results / improvement of cognitive function (NORT): APP-Tg mice; for improvement of cognitive function (NORT), summary of the above results: alone, with Elacridar or with ABT depending on the compound; for improvement of cognitive function (NORT): test compound and ABT (1 mg/g-food) administered with food for 10 days; for Discrimination index: APP-Tg mouse, with ABT 1 mg/g-food
Protocol: Test 3: Evaluation of the Cognitive Function by Novel Object Recognition Test (Hereinafter, Also Referred to as “NORT”)
The present test is for evaluating the improvement of cognitive function with the test compounds. When an APP-Tg mouse which is an AD (Alzheimer's disease) model mouse is evaluated by NORT, the memory for a familiar object decreases depending on the time interval between the first trial run (training) and the second trial run (test). For example, if the first trial run is done and 3 hours later the second one is done, there is no difference in the searching times between novel object and known object for the APP-Tg mouse, compared with a healthy mouse. Thus, the APP-Tg mouse suffers from significant amnesia.
The APP-Tg mouse used herein was prepared by constructing an expression cassette linked to human APP751 isoform to which Swedish (K670N/M671L) and Indiana (V717F) mutation were introduced at downstream of mouse Thy-1 promoter, then injecting the expression cassette into a mouse fertilized egg, and transplanting it to a host mouse. The prepared mouse presents with intracerebral AB accumulation and cognitive dysfunction from early on, and thus the mouse can be used for the evaluation of cognitive function. APP-Tg mouse has been also reported in Non-patent literature 6.
To the prepared APP-Tg mouse, the test compound was administered, and then the first trial run was done for the mouse 30 minutes after the intraperitoneal administration or after 10 days of mixed diet administration. The second trial run was done 3 hours after the first trial run, and the searching times between novel object and known object in the second trial were evaluated. The discrimination index was calculated from the searching time for novel object and known object in the second trial run, and the improvement of cognitive function of the test compound was confirmed by comparing the discrimination index with the test compound-unadministered group as an index of the cognitive function. The discrimination index was calculated by the following formula.
Discrimination index={(Searching time for novel object)−(Searching time for known object)}/{(Searching time for novel object)+(Searching time for known object)}
The present test can be also done with a combination with Elacridar (Tokyo Chemical Industry Co., Ltd.). Elacridar can inhibit P-gp and BCRP which are excretion transporters expressed in the blood-brain barrier and thereby Elacridar has the effect of improving the transferability of the test compound to the brain. Eracridal was orally administered to APP-Tg mice at 100 mg/kg 2 hours before the first trial run, and then the test compound was intraperitoneally administered to the mice 30 minutes before the first trial run according to the above method. And, the improvement of cognitive function was evaluated. The significant difference from the vehicle-administered group was determined using the parametric Dunnett multiple comparison test.
And, the present test can be also done with a combination with ABT (1-aminobenzotriazole) (Tokyo Chemical Industry Co., Ltd.). ABT has the effect of improving the blood concentration of the test compound by inhibiting CYP and suppressing metabolism. The test compound and ABT (1 mg/g-food) were administered with food to APP-Tg mice for 10 days, and then the improvement of cognitive function was evaluated according to the above method. The significant difference from the vehicle-administered group was determined using the parametric Dunnett multiple comparison test.

[4] = HEK293, Concentration for evaluation 1 μM, HEK293 cell line stably expressing human Nav1.1
[5] = HEK293, concentration for evaluation 1 μM, HEK293 stably expressing human Nav1.1

Row | SMILES | activation at 1 µM [1, 4] | activation at 3 µM ([1]; HEK293, Concentration for evaluation 3 μM, HEK293 cell line stably expressing human Nav1.1) | activation at 1 µM [1, 5] | Reducing effect of phosphorylated tau oligomer ([2]; dose 0.6 mg/g-food) | Reducing effect of phosphorylated tau oligomer ([2]; dose 2 mg/g-food) | reducing effect of tau oligomer [2] | improvement of cognitive function (NORT), summary of the above results [3] | improvement of cognitive function (NORT) [3] | Discrimination index ([3]; dose 0.2 mg/g-food for 10 days) | Discrimination index ([3]; dose 2 mg/g-food for 10 days) | Reducing effect of phosphorylated tau oligomer ([2]; dose 0.2 mg/g-food) | Discrimination index ([3]; dose 0.1 mg/g-food for 10 days) | Discrimination index ([3]; dose 4 mg/g-food for 10 days) | Reducing effect of phosphorylated tau oligomer ([2]; dose 0.1 mg/g-food) | Reducing effect of phosphorylated tau oligomer ([2]; dose 4 mg/g-food)
1 | N#Cc1ccc(NC(=O)Cn2ncc3ncc(N4CCC5(CC5)C(F)(F)C4)nc32)cn1 [Example 746, N-(6-cyanopyridin-3-yl)-2-[6-(4,4-difluoro-6-azaspiro[2.5]octan-6-yl)-1H-pyrazolo[3,4-b]pyrazin-1-yl]acetamide] | 102% |  |  |  | ++ (25-50%: ++) | some reducing effect of tau oligomer | some improvement of cognitive function | some improvement of cognitive function | 0.28 | 0.38 | ++ (25-50%: ++) |  |  |  | 
2 | CN(c1cnc2cnn(CC(=O)Nc3ccc(C#N)nc3)c2n1)C1CC2(CC2)C1 [Example 753, N-(6-cyanopyridin-3-yl)-2-{6-[methyl(spiro[2.3]hexan-5-yl)amino]-1H-pyrazolo[3,4-b]pyrazin-1-yl}acetamide] | 106% |  |  |  |  | some reducing effect of tau oligomer |  |  |  |  |  | 0.21 | 0.28 | ++ (25-50%: ++) | ++ (25-50%: ++)
3 | CN(c1ncc2cnn(CC(=O)Nc3ccc4ncnn4c3)c2n1)C1CC(C)(C)C1 [Example 821, 2-{6-[(3,3-dimethylcyclobutyl)(methyl)amino]-1H-pyrazolo[3,4-d]pyrimidin-1-yl}-N-([1,2,4]triazolo[1,5-a]pyridin-6-yl)acetamide] |  |  | 116% |  | + (0-25%: +) |  | some improvement of cognitive function | some improvement of cognitive function; also recorded: strong improvement of cognitive function | 0.30 | 0.37 | + (0-25%: +) |  |  |  | 

More lines, main results first:

Row | activation at 1 µM [1, 4] | activation at 3 µM ([1]; HEK293, Concentration for evaluation 3 μM, HEK293 cell line stably expressing human Nav1.1) | activation at 1 µM [1, 5] | SMILES | Reducing effect of phosphorylated tau oligomer ([2]; dose 0.6 mg/g-food) | Reducing effect of phosphorylated tau oligomer ([2]; dose 2 mg/g-food) | reducing effect of tau oligomer [2] | improvement of cognitive function (NORT), summary of the above results [3] | improvement of cognitive function (NORT) [3] | Discrimination index ([3]; dose 0.2 mg/g-food for 10 days) | Discrimination index ([3]; dose 2 mg/g-food for 10 days) | Reducing effect of phosphorylated tau oligomer ([2]; dose 0.2 mg/g-food) | Discrimination index ([3]; dose 0.1 mg/g-food for 10 days) | Discrimination index ([3]; dose 4 mg/g-food for 10 days) | Reducing effect of phosphorylated tau oligomer ([2]; dose 0.1 mg/g-food) | Reducing effect of phosphorylated tau oligomer ([2]; dose 4 mg/g-food)
4 | 25% |  |  | Cc1cc(NC(=O)Cn2nc(C3=CCC(C)CC3)ccc2=O)cc(C)n1 (centres unmarked) [Example 364, N-(2,6-dimethylpyridin-4-yl)-2-[3-(4-methylcyclohex-1-en-1-yl)-6-oxopyridazin-1(6H)-yl]acetamide] | + (0-25%: +) | + (0-25%: +) |  |  |  |  |  |  |  |  |  | 
5 |  | 66% |  | Cc1ncccc1N1CCN(C(=O)Cn2nc(C3=CCC(C)CC3)ccc2=O)CC1 (centres unmarked) [Example 410, 6-(4-methylcyclohex-1-en-1-yl)-2-{2-[4-(2-methylpyridin-3-yl)piperazin-1-yl]-2-oxoethyl}pyridazin-3 (2H)-one] | +++ (50-75%: +++) | + (0-25%: +) | some reducing effect of tau oligomer; also recorded: strong reducing effect of tau oligomer |  |  |  |  |  |  |  |  | 
6 | 120% |  |  | CN(c1cnc2cnn(CC(=O)Nc3ccn4ncnc4c3)c2n1)C1CC2(CC2)C1 [Example 630, 2-{6-[methyl(spiro[2.3]hexan-5-yl)amino]-1H-pyrazolo[3,4-b]pyrazin-1-yl}-N-([1,2,4]triazolo[1,5-a]pyridin-7-yl)acetamide] |  | ++ (25-50%: ++) | some reducing effect of tau oligomer | some improvement of cognitive function | some improvement of cognitive function | 0.04 | 0.45 | ++ (25-50%: ++) |  |  |  | 
7 |  |  | 88% | CN(CC1CCC1)c1ncc2cnn(CC(=O)Nc3ccc4ncnn4c3)c2n1 [Example 819, 2-{6-[(cyclobutylmethyl)(methyl)amino]-1H-pyrazolo[3,4-d]pyrimidin-1-yl}-N-([1,2,4]triazolo[1,5-a]pyridin-6-yl)acetamide] |  | + (0-25%: +) | some reducing effect of tau oligomer | some improvement of cognitive function | some improvement of cognitive function; also recorded: strong improvement of cognitive function | 0.47 | 0.52 | ++ (25-50%: ++) |  |  |  | 
